Assay results from patent publication US20250009634A1, “LIQUID COMPOSITION OF CERAMIDES AND PALMITIC ACID AMIDES” (Unifarco S.p.A., priority 2021, published 2025).

From the text: The samples were made in the standard quantity of 50 g, sufficient to perform the solubilisation and stability tests. The concentration ranges of the investigated actives and the sample preparation methods were established after a critical reading of the technical data sheets of each raw material.

Row | Structure (SMILES) | individual solubilisation in the solubilising agent
1 | CCCCCCCCCCCCCCCC(=O)NCCO [PMEA, palmitoylethanolamide] | possible to obtain the individual solubilisation
2 | CCCCCCCCCCCCCCCC(=O)NC(C)C [isopalmide, N-isopropyl-palmitoyl amide] | possible to obtain the individual solubilisation
